Assay results as given in ChEMBL document CHEMBL5380795, “Design, Synthesis, and Bioactivity Investigation of Cyclic Lipopeptide Antibiotics Containing Eight to Nine Amino Acids” (J Med Chem, 2023).
In brackets after ≈: the same amount, converted by molar mass. Activity calls are given as the source filed them. No cut-off for these calls is given here. Bridge positions count the residues as written; N and C are the ends. Square brackets hold non-standard residues; d marks the D form. Peptide text beside a SMILES is read from it. * marks the point of attachment. Decanoyl(3R-OH) = CCCCCCC[C@@H](O)CC(=O)*; Decanoyl = CCCCCCCCCC(=O)*; dDab = NCC[C@@H](N)C(=O)O; Dab = NCC[C@H](N)C(=O)O

Legend:
Escherichia coli [1] = assay: Antibacterial activity against Escherichia coli NCTC 13353 assessed as inhibition of bacterial growth incubated for 18 to 24 hrs by broth microdilution method; type: functional; conditions: time 18-24 hrs
Escherichia coli [2] = assay: Antibacterial activity against Escherichia coli ATCC 25922 assessed as inhibition of bacterial growth incubated for 18 to 24 hrs by broth microdilution method; type: functional; conditions: time 18-24 hrs
Klebsiella pneumoniae [3] = assay: Antibacterial activity against carbapenem resistant Klebsiella pneumoniae clinical isolate 19-15 assessed as inhibition of bacterial growth incubated for 18 to 24 hrs by broth microdilution method; type: functional; conditions: time 18-24 hrs
Pseudomonas aeruginosa [4] = assay: Antibacterial activity against Pseudomonas aeruginosa clinical isolate 19-1 assessed as inhibition of bacterial growth incubated for 18 to 24 hrs by broth microdilution method; type: functional; conditions: time 18-24 hrs
Pseudomonas aeruginosa [5] = assay: Antibacterial activity against carbapenem resistant Pseudomonas aeruginosa clinical isolate 17-1 assessed as inhibition of bacterial growth incubated for 18 to 24 hrs by broth microdilution method; type: functional; conditions: time 18-24 hrs
Staphylococcus aureus [6] = assay: Antibacterial activity against Staphylococcus aureus ATCC 29213 assessed as inhibition of bacterial growth incubated for 18 to 24 hrs by broth microdilution method; type: functional; conditions: time 18-24 hrs
[7] = test system: Staphylococcus epidermidis; assay: Antibacterial activity against methicillin resistant Staphylococcus epidermidis clinical isolate 19-6 assessed as inhibition of bacterial growth incubated for 18 to 24 hrs by broth microdilution method; type: functional; conditions: time 18-24 hrs
Escherichia coli [8] = assay: Antibacterial activity against KPC producing Escherichia coli ATCC BAA-2340 assessed as inhibition of bacterial growth incubated for 18 to 24 hrs by broth microdilution method; type: functional; conditions: time 18-24 hrs
Cell membrane = assay: Induction of outer membrane permeabilization in Escherichia coli ATCC 25922 assessed as increase in fluorescence at 1 to 16 ug/ml measured after 3 mins by NPN-dye based assay; type: subcellular; conditions: dose 1-16 µg/ml
Escherichia coli [9] = assay: Antibacterial activity against Escherichia coli ATCC BAA-2523 assessed as inhibition of bacterial growth incubated for 18 to 24 hrs by broth microdilution method; type: functional; conditions: time 18-24 hrs
[10] = test system: Staphylococcus epidermidis; assay: Antibacterial activity against methicillin resistant Staphylococcus epidermidis clinical isolate 19-5 assessed as inhibition of bacterial growth incubated for 18 to 24 hrs by broth microdilution method; type: functional; conditions: time 18-24 hrs
Acinetobacter baumannii [11] = assay: Antibacterial activity against oxacillinase-27 producing Acinetobacter baumannii NCTC 13304 assessed as inhibition of bacterial growth incubated for 18 to 24 hrs by broth microdilution method; type: functional; conditions: time 18-24 hrs
Klebsiella pneumoniae [12] = assay: Antibacterial activity against carbapenem resistant Klebsiella pneumoniae clinical isolate 19-17 assessed as inhibition of bacterial growth incubated for 18 to 24 hrs by broth microdilution method; type: functional; conditions: time 18-24 hrs
Pseudomonas aeruginosa [13] = assay: Antibacterial activity against Pseudomonas aeruginosa ATCC 27853 assessed as inhibition of bacterial growth incubated for 18 to 24 hrs by broth microdilution method; type: functional; conditions: time 18-24 hrs
Escherichia coli [14] = assay: Antibacterial activity against Escherichia coli clinical isolate 19-2 assessed as inhibition of bacterial growth incubated for 18 to 24 hrs by broth microdilution method; type: functional; conditions: time 18-24 hrs
Staphylococcus aureus [15] = assay: Antibacterial activity against Staphylococcus aureus; type: functional
Escherichia coli [16] = assay: Antibacterial activity against Escherichia coli; type: functional
Klebsiella pneumoniae [17] = assay: Antibacterial activity against KPC producing Klebsiella pneumoniae ATCC BAA-1705 assessed as inhibition of bacterial growth incubated for 18 to 24 hrs by broth microdilution method; type: functional; conditions: time 18-24 hrs
Acinetobacter baumannii [18] = assay: Antibacterial activity against carbapenem resistant Acinetobacter baumannii clinical isolate 19-8 assessed as inhibition of bacterial growth incubated for 18 to 24 hrs by broth microdilution method; type: functional; conditions: time 18-24 hrs
Klebsiella pneumoniae [19] = assay: Antibacterial activity against Klebsiella pneumoniae; type: functional
Candida albicans = assay: Antifungal activity against Candida albicans; type: functional
Staphylococcus aureus [20] = assay: Antibacterial activity against methicillin resistant Staphylococcus aureus ATCC 33591 assessed as inhibition of bacterial growth incubated for 18 to 24 hrs by broth microdilution method; type: functional; conditions: time 18-24 hrs
Pseudomonas aeruginosa [21] = assay: Antibacterial activity against Pseudomonas aeruginosa; type: functional
[22] = Selectivity index, ratio of IC50 for cytotoxicity against human HK-2 cells to MIC for antibacterial activity against Escherichia coli ATCC BAA-2523; type: toxicity, cell-based
Pseudomonas aeruginosa [23] = assay: Antibacterial activity against carbapenem resistant Pseudomonas aeruginosa clinical isolate 19-3 assessed as inhibition of bacterial growth incubated for 18 to 24 hrs by broth microdilution method; type: functional; conditions: time 18-24 hrs
[24] = Plasma protein binding in human at 2 uM incubated for 6 hrs by equilibrium dialysis based LC-MS/MS analysis; type: ADME, cell-free; conditions: read-out: PPB (converted)
Acinetobacter baumannii [25] = assay: Antibacterial activity against Acinetobacter baumannii; type: functional
[26] = test system: Staphylococcus epidermidis; assay: Antibacterial activity against Staphylococcus epidermidis; type: functional
[27] = Cytotoxicity against human HK-2 cells assessed as inhibition of cell growth incubated for 72 hrs by CCK-8 assay; type: toxicity, cell-based
Pseudomonas aeruginosa [28] = assay: Antibacterial activity against Pseudomonas aeruginosa FADDI-PA060 incubated for 18 hrs by broth microdilution method; type: functional
Pseudomonas aeruginosa [29] = assay: Antibacterial activity against Pseudomonas aeruginosa FADDI-PA025 incubated for 18 hrs by broth microdilution method; type: functional
Pseudomonas aeruginosa [30] = assay: Antibacterial activity against Pseudomonas aeruginosa FADDI-PA070 incubated for 18 hrs by broth microdilution method; type: functional
Pseudomonas aeruginosa [31] = assay: Antibacterial activity against Pseudomonas aeruginosa ATCC 27853 incubated for 18 hrs by broth microdilution method; type: functional
Pseudomonas aeruginosa [32] = assay: Antibacterial activity against Pseudomonas aeruginosa FADDI-PA090 incubated for 18 hrs by broth microdilution method; type: functional

C[C@@H](O)[C@H]1C(=O)N2C(C(=O)O)=C(S[C@@H]3CN[C@H](C(=O)N(C)C)C3)[C@H](C)[C@H]12 [MEROPENEM]
MIC (Escherichia coli [1]): < 0.06 µg/mL
MIC (Escherichia coli [2]): 0.06 µg/mL (≈ 0.156 µM)
MIC (Klebsiella pneumoniae [3]): 64 µg/mL (≈ 167 µM)
MIC (Pseudomonas aeruginosa [4]): 0.5 µg/mL (≈ 1.3 µM)
MIC (Pseudomonas aeruginosa [5]): 32 µg/mL (≈ 83.4 µM)
MIC (Staphylococcus aureus [6]): 0.125 µg/mL (≈ 0.326 µM)
MIC [7]: 2 µg/mL (≈ 5.22 µM)
MIC (Escherichia coli [8]): 4 µg/mL (≈ 10.4 µM)
Activity (Cell membrane): inactive
MIC (Escherichia coli [9]): 0.25 µg/mL (≈ 0.652 µM)
MIC [10]: 2 µg/mL (≈ 5.22 µM)
MIC (Acinetobacter baumannii [11]): 64 µg/mL (≈ 167 µM)
MIC (Klebsiella pneumoniae [12]): > 64 µg/mL
MIC (Pseudomonas aeruginosa [13]): 1 µg/mL (≈ 2.61 µM)
MIC (Escherichia coli [14]): ≤ 0.06 µg/mL

CCCCCCC[C@@H](O)CC(=O)N[C@H](CCN)C(=O)N[C@H]1CCNC(=O)[C@H](CC(C)C)NC(=O)[C@H](CCN)NC(=O)[C@H](CCN)NC(=O)[C@H](CC(C)C)NC(=O)[C@@H](CC(C)C)NC(=O)[C@H](CCN)NC1=O
MIC (Escherichia coli [1]): 16 µg/mL (≈ 15.8 µM)
MIC (Staphylococcus aureus [15]): 3.1 µg/mL (≈ 3.07 µM)
MIC (Klebsiella pneumoniae [3]): 16 µg/mL (≈ 15.8 µM)
MIC (Escherichia coli [16]): 0.1 µg/mL (≈ 0.099 µM)
MIC (Klebsiella pneumoniae [17]): 16 µg/mL (≈ 15.8 µM)
MIC (Pseudomonas aeruginosa [4]): 2 µg/mL (≈ 1.98 µM)
MIC (Acinetobacter baumannii [18]): 4 µg/mL (≈ 3.96 µM)
MIC (Klebsiella pneumoniae [19]): 0.78 µg/mL (≈ 0.772 µM)
MIC (Candida albicans): 4.7 µg/mL (≈ 4.65 µM)
MIC (Pseudomonas aeruginosa [5]): 2 µg/mL (≈ 1.98 µM)
MIC (Staphylococcus aureus [20]): > 64 µg/mL
MIC (Pseudomonas aeruginosa [21]): 0.4 µg/mL (≈ 0.396 µM)
selectivity ratio [22]: 3.8
MIC (Staphylococcus aureus [6]): > 64 µg/mL
MIC [7]: 16 µg/mL (≈ 15.8 µM)
MIC (Escherichia coli [8]): 8 µg/mL (≈ 7.92 µM)
MIC (Pseudomonas aeruginosa [23]): 4 µg/mL (≈ 3.96 µM)
fraction unbound at 6 h, 2 µM [24]: 0.0216
MIC (Acinetobacter baumannii [25]): 4 µg/mL (≈ 3.96 µM)
MIC (Escherichia coli [9]): 16 µg/mL (≈ 15.8 µM)
MIC [10]: 2 µg/mL (≈ 1.98 µM)
MIC [26]: 0.6 µg/mL (≈ 0.594 µM)
MIC (Acinetobacter baumannii [11]): 8 µg/mL (≈ 7.92 µM)
IC50 at 72 h [27]: 60.7 µg/mL (≈ 60.1 µM)
MIC (Klebsiella pneumoniae [12]): 16 µg/mL (≈ 15.8 µM)
MIC (Pseudomonas aeruginosa [13]): 1 µg/mL (≈ 0.99 µM)
MIC (Escherichia coli [14]): 16 µg/mL (≈ 15.8 µM)

CCCCCCCCCC(=O)N[C@H](CCN)C(=O)N[C@H]1CCNC(=O)[C@H]([C@@H](C)O)NC(=O)[C@H](CCN)NC(=O)[C@H](CCN)NC(=O)[C@H](CC(C)C)NC(=O)[C@@H](Cc2ccccc2)NC(=O)[C@H](CCN)NC1=O (Decanoyl-[dDab][Dab][Dab][dF]L[Dab][Dab]T; lactam 2-C)
MIC (Pseudomonas aeruginosa [28]): 0.5 µg/mL (≈ 0.492 µM)
MIC (Pseudomonas aeruginosa [29]): 0.5 µg/mL (≈ 0.492 µM)
MIC (Pseudomonas aeruginosa [30]): 0.5 µg/mL (≈ 0.492 µM)
MIC (Pseudomonas aeruginosa [31]): 0.5 µg/mL (≈ 0.492 µM)
MIC (Pseudomonas aeruginosa [32]): 0.5 µg/mL (≈ 0.492 µM)

CCCCCCC[C@@H](O)CC(=O)N[C@H](CCN)C(=O)N[C@H]1CCNC(=O)[C@H](CC(C)C)NC(=O)[C@H](CCN)NC(=O)[C@H](CCN)NC(=O)[C@H](CC(C)C)NC(=O)[C@@H](Cc2ccccc2)NC(=O)[C@H](CCN)NC1=O ({Decanoyl(3R-OH)}-[dDab][Dab][Dab][dF]L[Dab][Dab]L; lactam 2-C)
MIC (Escherichia coli [1]): 8 µg/mL (≈ 7.66 µM)
MIC (Staphylococcus aureus [15]): 3.1 µg/mL (≈ 2.97 µM)
MIC (Klebsiella pneumoniae [3]): 8 µg/mL (≈ 7.66 µM)
MIC (Escherichia coli [16]): 0.1 µg/mL (≈ 0.0958 µM)
MIC (Klebsiella pneumoniae [17]): 8 µg/mL (≈ 7.66 µM)
MIC (Pseudomonas aeruginosa [4]): 2 µg/mL (≈ 1.92 µM)
MIC (Acinetobacter baumannii [18]): 4 µg/mL (≈ 3.83 µM)
MIC (Klebsiella pneumoniae [19]): 0.78 µg/mL (≈ 0.747 µM)
MIC (Candida albicans): 4.7 µg/mL (≈ 4.5 µM)
MIC (Pseudomonas aeruginosa [5]): 2 µg/mL (≈ 1.92 µM)
MIC (Staphylococcus aureus [20]): 16 µg/mL (≈ 15.3 µM)
MIC (Pseudomonas aeruginosa [21]): 0.4 µg/mL (≈ 0.383 µM)
selectivity ratio [22]: 1.8
MIC (Staphylococcus aureus [6]): 16 µg/mL (≈ 15.3 µM)
MIC [7]: 4 µg/mL (≈ 3.83 µM)
MIC (Escherichia coli [8]): 2 µg/mL (≈ 1.92 µM)
MIC (Pseudomonas aeruginosa [23]): 4 µg/mL (≈ 3.83 µM)
fraction unbound at 6 h, 2 µM [24]: 0.0805
MIC (Acinetobacter baumannii [25]): 4 µg/mL (≈ 3.83 µM)
MIC (Escherichia coli [9]): 8 µg/mL (≈ 7.66 µM)
MIC [10]: 2 µg/mL (≈ 1.92 µM)
MIC [26]: 0.6 µg/mL (≈ 0.575 µM)
MIC (Acinetobacter baumannii [11]): 8 µg/mL (≈ 7.66 µM)
IC50 at 72 h [27]: 14.2 µg/mL (≈ 13.6 µM)
MIC (Klebsiella pneumoniae [12]): 8 µg/mL (≈ 7.66 µM)
MIC (Pseudomonas aeruginosa [13]): 2 µg/mL (≈ 1.92 µM)
MIC (Escherichia coli [14]): 16 µg/mL (≈ 15.3 µM)
